Measured values reported in paper PMC11953117 (Cancer Chemotherapy and Pharmacology, 2025).
Read-outs that look alike come from different tables or passages of the source.

Test: Capivasertib exposure metrics at steady state projected with PopPK model, patients with solid tumors
Format: in vivo
Settings: human, plasma, oral; for concentration at 12 h: read-out: Cmin
Procedure: Study 1 (NCT01226316) was a phase 1 open-label multipart study. […] The duration of the treatment cycles was 21 days. […] [18]. […] [18, 25, 39].
Study 4 (NCT01353781) was a phase 1 dose-escalation study in Japanese patients with advanced solid malignancies.
The exposure–response analyses were conducted using a subset of patients from the PopPK analysis where capivasertib was used as monotherapy. […] As different schedules were assessed between and within studies, the exposure metrics were derived for the last dose of the last dosing day in the second week of treatment (i.e. on days 14, 11, and 9 for the continuous, [4/3] and [2/5] schedules, respectively), to ensure SS conditions, using the planned dose. […] The relative dose intensity (RDI) was calculated as the percentage of the average weekly dose relative to the PWD to examine the tolerability of capivasertib monotherapy at the given dosing schedules.

[1] = 80 mg, Study 1, Continuous BID, PWD 1120 mg, N=5, median (range)
[2] = 80 mg, Study 4 (Japanese patients), Continuous BID, PWD 1120 mg, N=3, median (range)
[3] = 240 mg, Study 4 (Japanese patients), Continuous BID, PWD 3360 mg, N=7, median (range)
[4] = 320 mg, Study 4 (Japanese patients), Continuous BID, PWD 4480 mg, N=6, median (range)
[5] = 360 mg, Study 4 (Japanese patients), [4/3] BID, PWD 2880 mg, N=8, median (range)
[6] = 400 mg, Study 4 (Japanese patients), Continuous BID, PWD 5600 mg, N=5, median (range)
[7] = 480 mg, OAK, [4/3] BID, PWD 3840 mg, N=30, median (range)

NC1(C(=O)N[C@@H](CCO)c2ccc(Cl)cc2)CCN(c2ncnc3[nH]ccc23)CC1 [capivasertib, 4-amino-N-[(1S)-1-(4-chlorophenyl)-3-hydroxypropyl]-1-(7H-pyrrolo[2,3-d]pyrimidin– 4-yl)piperidine-4-carboxamide]
AUC (80 mg, Study 1, Continuous BID, 80 mg, PWD 1120 mg, N=5, median (range), read-out: AUCss(0–12 h)): 870 ng·h/mL | concentration at 12 h (80 mg, Study 1, Continuous BID, 80 mg, PWD 1120 mg, N=5, median (range)): 30 ng/mL | AUC at 1 week [1]: 12200 ng·h/mL | Cmax [1]: 150 ng/mL | AUC (80 mg, Study 4 (Japanese patients), Continuous BID, 80 mg, PWD 1120 mg, N=3, median (range), read-out: AUCss(0–12 h)): 1480 ng·h/mL | concentration at 12 h (80 mg, Study 4 (Japanese patients), Continuous BID, 80 mg, PWD 1120 mg, N=3, median (range)): 60 ng/mL | AUC at 1 week [2]: 20700 ng·h/mL | Cmax [2]: 220 ng/mL | AUC (160 mg, Study 1, Continuous BID, 160 mg, PWD 2240 mg, N=5, median (range), read-out: AUCPWD): 41800 ng·h/mL | AUC (160 mg, Study 1, Continuous BID, 160 mg, PWD 2240 mg, N=5, median (range), read-out: AUCss(0–12 h)): 2990 ng·h/mL | concentration at 12 h (160 mg, Study 1, Continuous BID, 160 mg, PWD 2240 mg, N=5, median (range)): 110 ng/mL | Cmax (160 mg, Study 1, Continuous BID, PWD 2240 mg, N=5, median (range)): 420 ng/mL | AUC (240 mg, Study 1, Continuous BID, 240 mg, PWD 3360 mg, N=6, median (range), read-out: AUCPWD): 44700 ng·h/mL | AUC (240 mg, Study 1, Continuous BID, 240 mg, PWD 3360 mg, N=6, median (range), read-out: AUCss(0–12 h)): 3190 ng·h/mL | concentration at 12 h (240 mg, Study 1, Continuous BID, 240 mg, PWD 3360 mg, N=6, median (range)): 110 ng/mL | Cmax (240 mg, Study 1, Continuous BID, PWD 3360 mg, N=6, median (range)): 530 ng/mL | AUC (240 mg, Study 4 (Japanese patients), Continuous BID, 240 mg, PWD 3360 mg, N=7, median (range), read-out: AUCss(0–12 h)): 5220 ng·h/mL | concentration at 12 h (240 mg, Study 4 (Japanese patients), Continuous BID, 240 mg, PWD 3360 mg, N=7, median (range)): 170 ng/mL | AUC at 1 week [3]: 73000 ng·h/mL | Cmax [3]: 820 ng/mL | AUC (320 mg, Study 1, Continuous BID, 320 mg, PWD 4480 mg, N=12, median (range), read-out: AUCPWD): 82000 ng·h/mL | AUC (320 mg, Study 1, Continuous BID, 320 mg, PWD 4480 mg, N=12, median (range), read-out: AUCss(0–12 h)): 5860 ng·h/mL | concentration at 12 h (320 mg, Study 1, Continuous BID, 320 mg, PWD 4480 mg, N=12, median (range)): 200 ng/mL | Cmax (320 mg, Study 1, Continuous BID, PWD 4480 mg, N=12, median (range)): 870 ng/mL | AUC (320 mg, Study 4 (Japanese patients), Continuous BID, 320 mg, PWD 4480 mg, N=6, median (range), read-out: AUCss(0–12 h)): 6560 ng·h/mL | concentration at 12 h (320 mg, Study 4 (Japanese patients), Continuous BID, 320 mg, PWD 4480 mg, N=6, median (range)): 150 ng/mL | AUC at 1 week [4]: 91800 ng·h/mL | Cmax [4]: 1380 ng/mL | AUC (360 mg, Study 4 (Japanese patients), [4/3] BID, 360 mg, PWD 2880 mg, N=8, median (range), read-out: AUCss(0–12 h)): 6100 ng·h/mL | concentration at 12 h (360 mg, Study 4 (Japanese patients), [4/3] BID, 360 mg, PWD 2880 mg, N=8, median (range)): 210 ng/mL | AUC at 1 week [5]: 48800 ng·h/mL | Cmax [5]: 960 ng/mL | AUC (400 mg, Study 1, Continuous BID, 400 mg, PWD 5600 mg, N=11, median (range), read-out: AUCPWD): 81000 ng·h/mL | AUC (400 mg, Study 1, Continuous BID, 400 mg, PWD 5600 mg, N=11, median (range), read-out: AUCss(0–12 h)): 5790 ng·h/mL | concentration at 12 h (400 mg, Study 1, Continuous BID, 400 mg, PWD 5600 mg, N=11, median (range)): 190 ng/mL | Cmax (400 mg, Study 1, Continuous BID, PWD 5600 mg, N=11, median (range)): 900 ng/mL | AUC (400 mg, Study 4 (Japanese patients), Continuous BID, 400 mg, PWD 5600 mg, N=5, median (range), read-out: AUCss(0–12 h)): 7750 ng·h/mL | concentration at 12 h (400 mg, Study 4 (Japanese patients), Continuous BID, 400 mg, PWD 5600 mg, N=5, median (range)): 270 ng/mL | AUC at 1 week [6]: 109000 ng·h/mL | Cmax [6]: 1240 ng/mL | AUC (480 mg, OAK, [4/3] BID, 480 mg, PWD 3840 mg, N=30, median (range), read-out: AUCss(0–12 h)): 9750 ng·h/mL | concentration at 12 h (480 mg, OAK, [4/3] BID, 480 mg, PWD 3840 mg, N=30, median (range)): 330 ng/mL | AUC at 1 week [7]: 78000 ng·h/mL | Cmax [7]: 1580 ng/mL | AUC (480 mg, Study 1, Continuous BID, 480 mg, PWD 6720 mg, N=6, median (range), read-out: AUCPWD): 140000 ng·h/mL | AUC (480 mg, Study 1, Continuous BID, 480 mg, PWD 6720 mg, N=6, median (range), read-out: AUCss(0–12 h)): 9980 ng·h/mL | concentration at 12 h (480 mg, Study 1, Continuous BID, 480 mg, PWD 6720 mg, N=6, median (range)): 370 ng/mL | Cmax (480 mg, Study 1, Continuous BID, PWD 6720 mg, N=6, median (range)): 1620 ng/mL | AUC (480 mg, Study 1, [4/3] BID, 480 mg, PWD 3840 mg, N=127, median (range), read-out: AUCss(0–12 h)): 9690 ng·h/mL
